Columns and labels:
[1] = system: K-562 (human myeloid leukemia cell); assay: CCK-8 anti-proliferation assay, K-562; format: cell-based; settings: 48 h, mean ± SEM; for inhibition at 20 µM: K562, at 20 µM; for Inhibition Rate (%): at 20 µM
Method: (§1) One concentration was set for each sample during preliminary screening and three multiple holes were set for each concentration. Eight concentration gradients were set for each sample for IC50 determination and three multiple holes were set for each concentration. […] The absorbance was measured at 450 nm with an enzyme labeling instrument and the original data and results were recorded. […] Doxorubicin was used as a positive control. All the cancer cell lines were obtained from Qingdao AC biotechnology Co., LTD, Qingdao, China.

[2] = system: A549 (human lung adenocarcinoma cell); assay: CCK-8 anti-proliferation assay, A549; format: cell-based; settings: A549, 48 h, mean ± SEM, read-out: Inhibition Rate (%)
Method: as §1

[3] = system: MKN-45 (human gastric cancer cell); assay: CCK-8 anti-proliferation assay, MKN-45; format: cell-based; settings: 48 h, mean ± SEM, read-out: Inhibition Rate (%)
Method: as §1

[4] = system: HCT 116 (human colorectal cancer cell); assay: CCK-8 anti-proliferation assay, HCT 116; format: cell-based; settings: 48 h, mean ± SEM, read-out: Inhibition Rate (%)
Method: as §1

[5] = system: HeLa (human cervical cancer cell); assay: CCK-8 anti-proliferation assay, HeLa; format: cell-based; settings: 48 h, mean ± SEM, read-out: Inhibition Rate (%)
Method: as §1

[6] = system: 786-O (human renal cancer cell); assay: CCK-8 anti-proliferation assay, 786-O; format: cell-based; settings: 48 h, mean ± SEM, read-out: Inhibition Rate (%); for inhibition at 20 µM: 786-0, at 20 µM
Method: as §1

[7] = system: TE-1 (human esophageal cancer cell); assay: CCK-8 anti-proliferation assay, TE-1; format: cell-based; settings: 48 h, mean ± SEM, read-out: Inhibition Rate (%)
Method: as §1

[8] = system: 5637 (HTB-9) (human bladder cancer cell); assay: CCK-8 anti-proliferation assay, 5637 (HTB-9); format: cell-based; settings: for IC50: CCK-8, 48 h, read-out: IC50 against 5637 (HTB-9) cells
Method: as §1

[9] = system: GBC-SD (human gallbladder carcinoma cell); assay: CCK-8 anti-proliferation assay, GBC-SD; format: cell-based; settings: 48 h, mean ± SEM, read-out: Inhibition Rate (%)
Method: as §1

[10] = system: L-02 (human hepatocyte cell); assay: CCK-8 anti-proliferation assay, L-02; format: cell-based; settings: L-02 normal liver cells, 48 h, mean ± SEM, read-out: Inhibition Rate (%)
Method: as §1

[11] = system: MCF7 (human breast cancer cell); assay: CCK-8 anti-proliferation assay, MCF7; format: cell-based; settings: 48 h, mean ± SEM, read-out: Inhibition Rate (%)
Method: as §1

[12] = system: HepG2 (human liver carcinoma cell); assay: CCK-8 anti-proliferation assay, HepG2; format: cell-based; settings: for IC50: CCK-8, 48 h, read-out: IC50 against HepG2 cells
Method: as §1

[13] = system: SF126 (human glioblastoma cell); assay: CCK-8 anti-proliferation assay, SF126; format: cell-based; settings: 48 h, mean ± SEM, read-out: Inhibition Rate (%); for inhibition at 20 µM: SF-126, at 20 µM
Method: as §1

[14] = system: DU145 (human prostate carcinoma cell); assay: CCK-8 anti-proliferation assay, DU145; format: cell-based; settings: 48 h, mean ± SEM, read-out: Inhibition Rate (%); for inhibition at 20 µM: DU-145, at 20 µM
Method: as §1

[15] = system: CAL-62 (human thyroid anaplastic carcinoma cell); assay: CCK-8 anti-proliferation assay, CAL-62; format: cell-based; settings: 48 h, mean ± SEM, read-out: Inhibition Rate (%)
Method: as §1

[16] = system: PATU8988T (human pancreatic cancer cell); assay: CCK-8 anti-proliferation assay, PATU8988T; format: cell-based; settings: PaTu 8988t, 48 h, mean ± SEM, read-out: Inhibition Rate (%)
Method: as §1

[17] = system: HOS (human osteosarcoma cell); assay: CCK-8 anti-proliferation assay, HOS; format: cell-based; settings: 48 h, mean ± SEM, read-out: Inhibition Rate (%)
Method: as §1

[18] = system: A-375 (human melanoma cell); assay: CCK-8 anti-proliferation assay, A-375; format: cell-based; settings: 48 h, mean ± SEM, read-out: Inhibition Rate (%)
Method: as §1

A-673 (Ewing sarcoma) = assay: CCK-8 anti-proliferation assay, A-673; format: cell-based; settings: Homo sapiens, 48 h, mean ± SEM, read-out: Inhibition Rate (%); for inhibition at 20 µM: A673, at 20 µM
Method: as §1

[19] = system: 293T (human embryonic kidney cell); assay: CCK-8 anti-proliferation assay, 293T; format: cell-based; settings: HEK-293T, 48 h, mean ± SEM, read-out: Inhibition Rate (%)
Method: as §1

[20] = system: respiratory syncytial virus (RSV); assay: Anti-RSV activity assay (RT-qPCR); format: cell-based; settings: human respiratory syncytial virus, HEp-2 cells, mean ± SEM, read-out: Inhibition rate (%) of RSV replication
Source text: Remdesivir was selected and evaluated as a positive control.

[21] = system: respiratory syncytial virus (RSV); parameters: method as in PMID 24882250; settings: read-out: anti-RSV IC50; cited from earlier work
[22] = Homo sapiens, read-out: Inhibition Rate (%)
[23] = 5637 (HTB-9), 48 h, mean ± SEM, read-out: Inhibition Rate (%)
[24] = 48 h, mean ± SEM, read-out: Inhibition Rate (%)

| Compound | inhibition at 10 µM [20] [%] | IC50 [21] [µM] | inhibition at 20 µM [1, 22] [%] | Inhibition Rate (%) [1] | inhibition at 20 µM [3] [%] | inhibition at 20 µM [4] [%] | inhibition at 20 µM [5] [%] | inhibition at 20 µM [6] [%] | inhibition at 20 µM [7] [%] | inhibition at 20 µM [8, 23] [%] | inhibition at 20 µM [9] [%] | inhibition at 20 µM [10] [%] | inhibition at 20 µM [11] [%] | inhibition at 20 µM [12, 24] [%] | inhibition at 20 µM [13] [%] | inhibition at 20 µM [14] [%] | inhibition at 20 µM [15] [%] | inhibition at 20 µM [16] [%] | inhibition at 20 µM [17] [%] | inhibition at 20 µM [18] [%] | further results |
| --- | --- | --- | --- | --- | --- | --- | --- | --- | --- | --- | --- | --- | --- | --- | --- | --- | --- | --- | --- | --- | --- |
| COc1cccc2c1C(=O)c1c(O)c3c(c(O)c1C2=O)C[C@@](O)(C(=O)CO)C[C@@H]3O[C@H]1C[C@H](N)[C@H](O)[C@H](C)O1 [Doxorubicin, reference compound] |  |  |  |  |  |  |  |  |  |  |  |  |  |  |  |  |  |  |  |  | inhibition at 10 µM ([1]; Homo sapiens, K562, at 10 µM, read-out: Inhibition Rate (%)): 67.5 ± 1%; inhibition at 10 µM ([2]; at 10 µM): 75.9 ± 2.5%; inhibition at 10 µM ([3]; at 10 µM): 89.8 ± 0.5%; inhibition at 10 µM ([4]; at 10 µM): 88.9 ± 1.5%; inhibition at 10 µM ([5]; at 10 µM): 97.7 ± 0.4%; inhibition at 10 µM ([6]; 786-0, at 10 µM): 86.3 ± 1.9%; inhibition at 10 µM ([7]; at 10 µM): 83.3 ± 1.1%; inhibition at 10 µM ([8]; 5637 (HTB-9), at 10 µM, 48 h, mean ± SEM, read-out: Inhibition Rate (%)): 99.3 ± 0.3%; inhibition at 10 µM ([9]; at 10 µM): 76.7 ± 1.5%; inhibition at 10 µM ([10]; at 10 µM): 99.2 ± 0.1%; inhibition at 10 µM ([11]; at 10 µM): 55.9 ± 1.7%; inhibition at 10 µM ([12]; at 10 µM, 48 h, mean ± SEM, read-out: Inhibition Rate (%)): 95.9 ± 1.9%; inhibition at 10 µM ([13]; SF-126, at 10 µM): 97.1 ± 1%; inhibition at 10 µM ([14]; DU-145, at 10 µM): 76.4 ± 1.6%; inhibition at 10 µM ([15]; at 10 µM): 92.6 ± 1.3%; inhibition at 10 µM ([16]; at 10 µM): 98.4 ± 0.6%; inhibition at 10 µM ([17]; at 10 µM): 98.4 ± 0.9%; inhibition at 10 µM ([18]; at 10 µM): 95.3 ± 1%; inhibition at 10 µM (A-673 (Ewing sarcoma); A673, at 10 µM): 98.7 ± 0.6%; inhibition at 10 µM ([19]; at 10 µM): 88.2 ± 1.2% |
| CCC(CC)COC(=O)[C@H](C)N[P@](=O)(OC[C@H]1O[C@@](C#N)(c2ccc3c(N)ncnn23)[C@H](O)[C@@H]1O)Oc1ccccc1 [Remdesivir, reference compound] | 91.8 ± 0.5 |  |  |  |  |  |  |  |  |  |  |  |  |  |  |  |  |  |  |  |  |
| CC(=O)OC[C@@H](C)C/C=C/[C@@H](C)[C@H]1CC[C@H]2[C@@H]3CC(=O)[C@@]4(O)C[C@@H](O)CC[C@]4(C)[C@H]3CC[C@]12C [compound 1] |  | 0.78 |  |  |  |  |  |  |  |  |  |  |  |  |  |  |  |  |  |  |  |
| CC(=O)OC[C@@H](C)[C@H](C)/C=C/[C@@H](C)[C@H]1CC[C@H]2[C@@H]3CC(=O)[C@@]4(O)C[C@@H](O)CC[C@]4(C)[C@H]3CC[C@]12C [compound 2] |  | 0.19 |  |  |  |  |  |  |  |  |  |  |  |  |  |  |  |  |  |  |  |
| CC(=O)OC[C@H](C)[C@H](C)/C=C/[C@@H](C)[C@H]1CC[C@H]2[C@@H]3CC(=O)[C@@]4(O)C[C@@H](O)CC[C@]4(C)[C@H]3CC[C@]12C [compound 3] |  | 0.19 |  |  |  |  |  |  |  |  |  |  |  |  |  |  |  |  |  |  |  |
| CC(=O)OCC(C)/C=C/[C@@H](C)[C@H]1CC[C@H]2[C@@H]3CC(=O)[C@@]4(O)C[C@@H](O)CC[C@]4(C)[C@H]3CC[C@]12C (some centres unmarked) [compound 4] |  | 3.23 |  |  |  |  |  |  |  |  |  |  |  |  |  |  |  |  |  |  |  |
| C[C@@H](CO)CCC[C@@H](C)[C@H]1[C@@H](O)C[C@H]2[C@@H]3CC=C4C[C@@H](O)CC[C@]4(C)[C@H]3CC[C@]12C [compound 8, (3S,8S,9S,10R,13S,14S,16S,17R)-17-((2R,6R)-7-Hydroxy-6-Methylheptan-2-yl)-10,13-Dimethyl-2,3,4,7,8,9,10,11,12,13,14,15,16,17-Tetradecahydro-1H-Cyclopenta[a]Phenanthrene-3,16-diol] | 24.9 ± 2.6 |  | 7.2 ± 2.2 | did not exhibit any anti-proliferative activities | 54.4 ± 1.9 | 61.7 ± 2.1 | 49.7 ± 3.6 | 69 ± 1.8 | 34 ± 3.8 | 75.1 ± 0.8 | 26.8 ± 1.3 | 8.1 ± 1.3 | 31.2 ± 1.4 | 76.8 ± 1.3 | 30.7 ± 2.4 | 26 ± 1.7 | 28 ± 4 | 62.7 ± 2 | 2.7 ± 4 | 72.3 ± 0.6 | inhibition at 20 µM [2]: 53 ± 2.7%; IC50 [8]: 5.8 µM; IC50 [12]: 12 µM; inhibition at 20 µM (A-673 (Ewing sarcoma)): 51.9 ± 2.8%; inhibition at 20 µM [19]: 42.4 ± 2.1% |
| C[C@@H](CO)CCC[C@@H](C)[C@H]1CC[C@H]2[C@@H]3CC=C4C[C@@H](O)CC[C@]4(C)[C@H]3CC[C@]12C [compound 11, (3S,8S,9S,10R,13R,14S,17R)-17-((2R,6R)-7-Hydroxy-6-Methylheptan-2-yl)-10,13-Dimethyl-2,3,4,7,8,9,10,11,12,13,14,15,16,17-Tetradecahydro-1H-Cyclopenta[a]Phenanthren-3-ol] | 22.2 ± 3.9 |  | 13.1 ± 1.8 | did not exhibit any anti-proliferative activities | 53.8 ± 1.6 | 19.8 ± 1.4 | 14.9 ± 2.2 | 65.9 ± 2.4 | 27.7 ± 0.6 | 80.5 ± 2.5 | 10.4 ± 3.3 | 2.8 ± 2.1 | 14.1 ± 0.5 | 64.2 ± 2.5 | 11.7 ± 2.9 | 18.4 ± 3.7 | 12.5 ± 3.9 | 63.3 ± 4.2 | 9.3 ± 4.3 | 60.8 ± 1.4 | inhibition at 20 µM [2]: ≤ 50%; IC50 [8]: 3 µM; IC50 [12]: 5.6 µM; inhibition at 20 µM (A-673 (Ewing sarcoma)): 26.5 ± 2.1%; inhibition at 20 µM [19]: -18.2 ± 1.3% |
| CC(=O)OC[C@H](C)CCC[C@@H](C)[C@H]1CC[C@H]2[C@@H]3C[C@@H](O)[C@@]4(O)C[C@@H](O)CC[C@]4(C)[C@H]3CC[C@]12C [compound 13, (2R,6R)-2-Methyl-6-((3S,5R,6R,8S,9S,10R,13R,14S,17R)-3,5,6-Trihydroxy-10,13-Dimethylhexadecahydro-1H-Cyclopenta[a]Phenanthren-17-yl) Heptyl Acetate] | 13.6 ± 2.1 |  | 7.8 ± 2.3 | did not exhibit any anti-proliferative activities | 52.7 ± 2.4 | 19.3 ± 1.2 | -2.3 ± 1.7 | 20.5 ± 1.3 | 13.5 ± 2.6 | 52.2 ± 4.5 | 6 ± 2.4 | 6.3 ± 3.2 | 19 ± 1.1 | 58 ± 1.2 | 4.7 ± 1.3 | -0.4 ± 3.9 | 7.5 ± 2.7 | 53.6 ± 1.7 | 52.6 ± 1.5 | 54.8 ± 1.7 | inhibition at 20 µM (A-673 (Ewing sarcoma)): 66.3 ± 3.2%; inhibition at 20 µM [19]: 37.3 ± 2.7%; melting point: 201 to 202 °C |

— PMC10053440, “Semi-Synthesis and Biological Evaluation of 25(R)-26-Acetoxy-3β,5α-Dihydroxycholest-6-One” (Marine Drugs, 2023)
